The record followed here is PMC3255464 (2011).

This assay addresses galectin-3 carbohydrate recognition domain (Gal3C) (Homo sapiens, UniProt P17931). Description: X-ray crystal structure at […] Å. The format is binding.

Sequence of galectin-3 carbohydrate recognition domain (Gal3C) (P17931 113-250): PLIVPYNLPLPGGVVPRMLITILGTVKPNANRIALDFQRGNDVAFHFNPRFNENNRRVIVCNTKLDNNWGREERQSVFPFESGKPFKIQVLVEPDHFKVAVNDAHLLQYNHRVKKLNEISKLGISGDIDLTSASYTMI

In turn, `OCC(O)CO` [glycerol] returned a Kd of more than 100 mM.

As usually defined, the Kd is a measure of binding affinity in units of concentration. Higher therefore signals a looser complex.
